Assays:
Format in all cases: cell-based
Survivin = assay: Effect on survivin expression (Table 9)
Description: (§1) The effects of various compounds having general formula (I) on survivin and TCF4 expression were characterized.

TCF4 = assay: Effect on TCF4 expression (Table 9)
Description: as §1

[1] = system: TCF4/β-catenin transcription (TOPFlash) in SW480 cells; assay: Reporter gene assay (TOPFlash luciferase); details: Homo sapiens, SW480, Table 10; prodrug compounds, reporter gene assay TopF; read-out: RGA, TopF IC50
Summary of the method: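 SW480 cells transiently co-transfected with TOPFlash and pRL-null (4:1 µg) using Superfect, then reseeded at 3×10^4 cells/well and incubated overnight at 37 °C. Compound treatment lasted 24 h before luciferase read-out.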

HCT116 cells [2] = assay: MTS cytotoxicity test; details: Homo sapiens, HCT-116, Table 10, prodrug compounds, 24 hours treatment, read-out: MTS, HCT116 (uM) LD50
Description: (§2) SW480 or HCT116 cells were placed into 96 well microplate (10^4cells/well) and incubated for 24 hours at 37° C. The cells were treated with TCF4 compound at various concentrations for 24 hours. 20 μl of MTS solution (Promega) was added into each well and incubated for 2 hours at 37° C. Cell viability was measured by reading the absorbance at 490 nm using microplate reader (Molecular Device) and cytotoxicity of a compound at each concentration was calculated.

SW480 cells [3] = assay: MTS cytotoxicity test; details: Homo sapiens, Table 10, prodrug compounds, 24 hours treatment, read-out: MTS, SW480 (uM) LD50
Description: as §2

HCT116 cells [4] = assay: Growth inhibition assay (MTS); details: Homo sapiens, HCT-116; Table 10; prodrug compounds, HCT116 cells, growth inhibition; read-out: MTS, HCT116 (uM) GI50
Summary of the method: (§3)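 Cells seeded at 10^4 per well, grown 24 h at 37° C, then exposed to compound at various concentrations for 48 hours. MTS added for 2 h; absorbance at 490 nm gave viability, with cytotoxicity calculated per concentration against pre-treatment reading.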

SW480 cells [5] = assay: Growth inhibition assay (MTS); details: Homo sapiens; Table 10; prodrug compounds, SW480 cells, growth inhibition; read-out: MTS, SW480 (uM) GI50
Summary of the method: as §3

[6] = system: survivin promoter in SW480 cells; assay: Survivin luciferase reporter in SW480 cells; details: Homo sapiens, SW480; Table 10; prodrug compounds, reporter gene assay Survivin; read-out: RGA, Survivin IC50

SMILES | IC50 (TCF4) | inhibition at 5 µM (Survivin) | inhibition at 25 µM (Survivin) | IC50 [1] | IC50 (HCT116 cells [2]) | IC50 (SW480 cells [3]) | GI50 (HCT116 cells [4]) | GI50 (SW480 cells [5]) | IC50 [6]
CN1CC(=O)N2[C@@H](Cc3ccc(O)cc3)C(=O)N(Cc3c(Cl)cc(Cl)c4cccnc34)C[C@@]2(C)N1C(=O)NCc1ccccc1 | 11.2 ± 1.5 µM | 6% | 58% | – | – | – | – | – | –
CN1CC(=O)N2[C@@H](Cc3ccc(OP(=O)(O)O)cc3)C(=O)N(Cc3cccc4ccccc34)C[C@@H]2N1C(=O)NCc1ccccc1 [Compound 2] | – | – | – | 3.5 µM | 23.2 µM | 8.2 µM | 6.6 µM | 3.1 µM | 5.7 µM
CN(C)c1cc(F)ccc1CN1C[C@H]2N(C(=O)CN(C)N2C(=O)NCc2ccccc2)[C@@H](Cc2ccc(OP(=O)(O)O)cc2)C1=O [Compound 3] | – | – | – | 11.5 µM | 41.9 µM | > 50 µM | 3.1 µM | 3 µM | –
CN1CC(=O)N2[C@@H](Cc3ccc(OP(=O)(O)O)cc3)C(=O)N(Cc3ccc(F)cc3F)C[C@@H]2N1C(=O)NCc1ccccc1 [Compound 4] | – | – | – | 7.3 µM | 49.3 µM | > 50 µM | 11.4 µM | 6.9 µM | 6.5 µM
CN1CC(=O)N2[C@@H](Cc3ccc(OP(=O)(O)O)cc3)C(=O)N(Cc3cccc4cnn(C)c34)C[C@@H]2N1C(=O)NCc1ccccc1 [Compound 5] | – | – | – | 26 µM | > 50 µM | 34 µM | 16.5 µM | 5.2 µM | –
C=CCN1CC(=O)N2[C@@H](Cc3ccc(OP(=O)(O)O)cc3)C(=O)N(Cc3cccc4cccnc34)C[C@@H]2N1C(=O)NCc1ccccc1 [Compound 6] | – | – | – | 0.8 µM | 6.4 µM | 9.2 µM | 0.4 µM | 0.5 µM | 0.1 µM
C=CCN1CC(=O)N2[C@@H](Cc3ccc(OP(=O)(O)O)cc3)C(=O)N(Cc3ccc(Cl)c4cccnc34)C[C@@H]2N1C(=O)NCc1ccccc1 [Compound 7] | – | – | – | 2.3 µM | 12 µM | 12.9 µM | 1.8 µM | 2.2 µM | 1 µM
C=CCN1CC(=O)N2[C@@H](Cc3ccc(OP(=O)(O)O)cc3)C(=O)N(Cc3ccc(F)cc3F)C[C@@H]2N1C(=O)NCc1ccccc1 [Compound 8] | – | – | – | 1.4 µM | 23.2 µM | 21.6 µM | 1.9 µM | 2.1 µM | 0.9 µM
CN1CC(=O)N2[C@@H](Cc3ccc(OP(=O)(O)O)cc3)C(=O)N(Cc3cccc4cccnc34)C[C@@H]2N1C(=O)NCc1ccccc1 [Compound 9] | – | – | – | 9.6 µM | > 50 µM | > 50 µM | 14.7 µM | 7.6 µM | 6 µM
CCCN1CC(=O)N2[C@@H](Cc3ccc(OP(=O)(O)O)cc3)C(=O)N(Cc3cccc4cccnc34)C[C@@H]2N1C(=O)NCc1ccccc1 [Compound 10] | – | – | – | 2.8 µM | 7 µM | 0.4 µM | 0.8 µM | 0.9 µM | 1.7 µM
CN1CC(=O)N2[C@@H](Cc3ccc(OP(=O)(O)O)cc3)C(=O)N(Cc3ccc4ncsc4c3)C[C@@H]2N1C(=O)NCc1ccccc1 [Compound 11] | – | – | – | 10.3 µM | > 50 µM | > 50 µM | 6.3 µM | 6.5 µM | 6.7 µM
C=CCN1CC(=O)N2[C@@H](Cc3ccc(OP(=O)(O)O)cc3)C(=O)N(Cc3cccc4c3N(C)CCO4)C[C@@H]2N1C(=O)NCc1ccccc1 [Compound 12] | – | – | – | 1 µM | 19.3 µM | > 50 µM | 1.2 µM | 1 µM | 0.7 µM
CN(C)c1cc(CN2C[C@H]3N(C(=O)CN(C)N3C(=O)NCc3ccccc3)[C@@H](Cc3ccc(OP(=O)(O)O)cc3)C2=O)ccc1Cl [Compound 13] | – | – | – | 1.8 µM | 20 µM | 21.1 µM | 1.7 µM | 2.3 µM | 0.9 µM
CN(C)c1cc(F)c(F)cc1CN1C[C@H]2N(C(=O)CN(C)N2C(=O)NCc2ccccc2)[C@@H](Cc2ccc(OP(=O)(O)O)cc2)C1=O [Compound 14] | – | – | – | 1.7 µM | 16 µM | 21.1 µM | 2.1 µM | 2.3 µM | 1.2 µM

Further lines, with some results ahead:

IC50 (TCF4) | SMILES | inhibition at 5 µM (Survivin) | inhibition at 25 µM (Survivin) | IC50 [1] | IC50 (HCT116 cells [2]) | IC50 (SW480 cells [3]) | GI50 (HCT116 cells [4]) | GI50 (SW480 cells [5]) | IC50 [6]
~2 µM | CN1CC(=O)N2[C@@H](Cc3ccc(O)cc3)C(=O)N(Cc3cccc4ccccc34)C[C@@]2(C)N1C(=O)NCc1ccccc1 | 100% | 99% | – | – | – | – | – | –
~2.2 µM | CN1CC(=O)N2C(Cc3ccc(O)cc3)C(=O)N(Cc3cccc4cccnc34)CC2N1C(=O)NCc1ccccc1 (stereo not shown) | 97% | 100% | – | – | – | – | – | –
10.9 ± 1.3 µM | Cc1cccc(CN2C[C@@H]3N(C(=O)CN(C)N3C(=O)NCc3ccccc3)[C@@H](Cc3ccc(O)cc3)C2=O)c1N(C)C | 0% | 68% | – | – | – | – | – | –
1.4 ± 0.2 µM | CN(C)c1cc(F)c(F)cc1CN1C[C@@H]2N(C(=O)CN(C)N2C(=O)NCc2ccccc2)[C@@H](Cc2ccc(O)cc2)C1=O | 9% | 91% | – | – | – | – | – | –
6.3 ± 0.431 µM | CC(C)N(C)c1cccc(CN2C[C@@H]3N(C(=O)CN(C)N3C(=O)NCc3ccccc3)[C@@H](Cc3ccc(O)cc3)C2=O)c1 | 5% | 91% | – | – | – | – | – | –
2.6 ± 0.4 µM | Cc1ccc(N(C)C)c(CN2C[C@@H]3N(C(=O)CN(C)N3C(=O)NCc3ccccc3)[C@@H](Cc3ccc(O)cc3)C2=O)c1 | 0% | 94% | – | – | – | – | – | –
7.3 ± 1.1 µM | CN(C)c1c(Cl)cccc1CN1C[C@@H]2N(C(=O)CN(C)N2C(=O)NCc2ccccc2)[C@@H](Cc2ccc(O)cc2)C1=O | 0% | 21% | – | – | – | – | – | –
5.2 ± 1.1 µM | CN(C)c1c(CN2C[C@@H]3N(C(=O)CN(C)N3C(=O)NCc3ccccc3)[C@@H](Cc3ccc(O)cc3)C2=O)cccc1C(F)(F)F | 0% | 91% | – | – | – | – | – | –
13.2 ± 4.1 µM | CN1CC(=O)N2[C@@H](CN(Cc3cccc4c3ncn4C)C(=O)[C@@H]2Cc2ccc(O)cc2)N1C(=O)NCc1ccccc1 | 45% | 88% | – | – | – | – | – | –
5.9 ± 0.5 µM | COc1cccc(CN2C[C@@H]3N(C(=O)CN(C)N3C(=O)NCc3ccccc3)[C@@H](Cc3ccc(O)cc3)C2=O)c1N(C)C | 9% | 92% | – | – | – | – | – | –
3.9 ± 0.55 µM | Cc1c(CN2C[C@@H]3N(C(=O)CN(C)N3C(=O)NCc3ccccc3)[C@@H](Cc3ccc(O)cc3)C2=O)cccc1N(C)C | 48% | 96% | – | – | – | – | – | –
50.4 ± 7 µM | CN1CC(=O)N2[C@@H](CN(Cc3c(Cl)ccc4cccnc34)C(=O)[C@@H]2Cc2ccc(O)cc2)N1C(=O)NCc1ccccc1 | 0% | 32% | – | – | – | – | – | –
2.6 ± 0.6 µM | CN1CC(=O)N2[C@@H](CN(Cc3ccc(Cl)c4cccnc34)C(=O)[C@@H]2Cc2ccc(O)cc2)N1C(=O)NCc1ccccc1 | 86% | 91% | – | – | – | – | – | –
10.7 ± 1.7 µM | CC(C)N(C)c1ccccc1CN1C[C@@H]2N(C(=O)CN(C)N2C(=O)NCc2ccccc2)[C@@H](Cc2ccc(O)cc2)C1=O | 27% | 98% | – | – | – | – | – | –
4.6 ± 0.7 µM | CN1CC(=O)N2[C@@H](CN(Cc3cccc4cn[nH]c34)C(=O)[C@@H]2Cc2ccc(O)cc2)N1C(=O)NCc1ccccc1 | 80% | 97% | – | – | – | – | – | –
2.8 ± 0.4 µM | CN1CC(=O)N2[C@@H](CN(Cc3cccc4cnn(C)c34)C(=O)[C@@H]2Cc2ccc(O)cc2)N1C(=O)NCc1ccccc1 | 82% | 97% | – | – | – | – | – | –
13.9 ± 2.3 µM | CN(C)c1cc(Cl)ccc1CN1C[C@@H]2N(C(=O)CN(C)N2C(=O)NCc2ccccc2)[C@@H](Cc2ccc(O)cc2)C1=O | 6% | 89% | – | – | – | – | – | –
10.7 ± 1.9 µM | Cc1ccc(N(C)C(C)C)c(CN2C[C@@H]3N(C(=O)CN(C)N3C(=O)NCc3ccccc3)[C@@H](Cc3ccc(O)cc3)C2=O)c1 | 14% | 99% | – | – | – | – | – | –
27.1 ± 4.6 µM | CC(C)N(C)c1ccc(Cl)c(CN2C[C@@H]3N(C(=O)CN(C)N3C(=O)NCc3ccccc3)[C@@H](Cc3ccc(O)cc3)C2=O)c1 | 25% | 44% | – | – | – | – | – | –

Source: US7671054B1, “Reverse-turn mimetics and method relating thereto” (Choongwae Pharma Corporation, priority 2001, dated 2010)
